Test results as given in the supplement of paper PMC10307832.

Legend:
Assay in all cases: relative viability (nuclei count vs DMSO), 5 days (fraction); higher = more cells survive
[1] = compound: C1=CC=C2C(=C1)N=C(S2)C(C#N)C3=NC(=NC=C3)NCCC4=CN=CC=C4 + O=C(c1cc(Cc2n[nH]c(=O)c3ccccc23)ccc1F)N1CCN(C(=O)C2CC2)CC1 [Olaparib] (partner 8 µM)
Method in brief: (§1)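 One day after seeding in 1536-well plates, lung cancer cell lines were dosed by pin tool. Dosing was either single-drug or a fixed anchor-drug dose plus five library-drug doses (not always all listed) in √10 steps. After 5 days, nuclei were stained in one fix-and-stain step and counted on 4× images, and relative viability is the nuclei count of treated wells over that of vehicle wells, given as the median of duplicate plates.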

[2] = compound: C#Cc1cccc(Nc2ncnc3cc(OC)c(OCCCCCCC(=O)NO)cc23)c1 [CUDC-101] + CC(=O)Nc1cccc(-n2c(=O)n(C3CC3)c(=O)c3c(Nc4ccc(I)cc4F)n(C)c(=O)c(C)c32)c1 [Trametinib] (partner 0.02 µM)
Method in brief: as §1

[3] = compound: COc1cc2/c(=N/c3ccc(Br)cc3F)nc[nH]c2cc1OCC1CCN(C)CC1 [Vandetanib] + CC1(C)CCC(c2ccc(Cl)cc2)=C(CN2CCN(c3ccc(C(=O)NS(=O)(=O)c4ccc(N[C@H](CCN5CCOCC5)CSc5ccccc5)c(S(=O)(=O)C(F)(F)F)c4)cc3)CC2)C1 [Navitoclax] (partner 0.5 µM)
Method in brief: as §1

[4] = compound: COc1cc2/c(=N/c3ccc(Br)cc3F)nc[nH]c2cc1OCC1CCN(C)CC1 [Vandetanib] + Nc1ncn([C@H]2C[C@H](O)[C@@H](CO)O2)c(=O)n1 [Decitabine] (partner 2 µM)
Method in brief: as §1

Row | Cell Line | relative viability ([1]; first compound 0.005 µM) | relative viability ([1]; first compound 0.01581 µM) | relative viability ([1]; first compound 0.05 µM) | relative viability ([1]; first compound 0.1581 µM) | relative viability ([1]; first compound 0.5 µM) | relative viability ([2]; first compound 0.01 µM) | relative viability ([2]; first compound 0.03162 µM) | relative viability ([2]; first compound 0.1 µM) | relative viability ([2]; first compound 0.3162 µM) | relative viability ([2]; first compound 1 µM) | relative viability ([3]; first compound 0.02 µM) | relative viability ([3]; first compound 0.06325 µM) | relative viability ([3]; first compound 0.2 µM) | relative viability ([3]; first compound 0.6325 µM) | relative viability ([3]; first compound 2 µM) | relative viability ([4]; first compound 0.02 µM) | relative viability ([4]; first compound 0.06325 µM) | relative viability ([4]; first compound 0.2 µM) | relative viability ([4]; first compound 0.6325 µM) | relative viability ([4]; first compound 2 µM)
1 | NCI-H2023 | 0.508 | 0.543 | 0.562 | 0.541 | 0.447 | 0.615 | 0.542 | 0.578 | 0.551 | 0.428 | 0.898 | 0.971 | 1.04 | 1.01 | 0.996 | 0.235 | 0.183 | 0.225 | 0.253 | 0.204
2 | NCI-H2085 | 0.765 | 0.765 | 0.738 | 0.778 | 0.794 | 0.607 | 0.496 | 0.706 | 0.604 | 0.505 | 1.23 | 1.07 | 1.12 | 1.03 | 1 | 0.536 | 0.522 | 0.525 | 0.471 | 0.574
3 | NCI-H2087 | 0.385 | 0.562 | 0.509 | 0.759 | 0.433 | 0.224 | 0.225 | 0.204 | 0.195 | 0.185 | 1.02 | 0.832 | 0.948 | 1.16 | 1.08 | 0.364 | 0.379 | 0.281 | 0.286 | 0.233
4 | NCI-H2126 | 0.771 | 0.945 | 0.887 | 0.978 | 0.75 | 0.552 | 0.545 | 0.56 | 0.522 | 0.415 | 0.865 | 0.859 | 0.84 | 0.866 | 0.727 | 0.537 | 0.551 | 0.592 | 0.576 | 0.552
5 | NCI-H2170 | 0.592 | 0.686 | 0.621 | 0.598 | 0.458 | 0.951 | 0.967 | 0.883 | 0.939 | 0.843 | 0.621 | 0.618 | 0.565 | 0.567 | 0.502 | 0.44 | 0.478 | 0.472 | 0.458 | 0.455
6 | NCI-H2347 | 0.607 | 0.611 | 0.627 | 0.642 | 0.525 | 0.285 | 0.264 | 0.278 | 0.294 | 0.259 | 0.878 | 0.453 | 0.834 | 0.945 | 0.708 | 0.595 | 0.525 | 0.685 | 0.619 | 0.568
7 | NCI-H2405 | 0.797 | 0.835 | 0.897 | 0.867 | 0.77 | 0.682 | 0.558 | 0.658 | 0.779 | 0.551 | 0.786 | 0.426 | 0.889 | 1.23 | 0.696 | 0.749 | 0.687 | 0.747 | 0.8 | 0.718
8 | NCI-H3122 | 0.671 | 0.655 | 0.691 | 0.788 | 0.885 | 0.201 | 0.224 | 0.198 | 0.243 | 0.228 | 0.99 | 0.998 | 1.03 | 0.994 | 1.03 | 0.454 | 0.39 | 0.178 | 0.456 | 0.481
9 | PC-3 [JPC-3] | 1.01 | – | 1.08 | 1.12 | 0.679 | 0.608 | 0.519 | 0.494 | 0.455 | 0.323 | 0.783 | 0.738 | 0.777 | 0.719 | 0.451 | 0.876 | 0.847 | 0.72 | 0.661 | 0.488
10 | PC-14 | 0.28 | 0.267 | 0.211 | 0.244 | 0.247 | 0.928 | 0.605 | 0.619 | 0.233 | 0.0423 | 1.02 | 0.953 | 1.07 | 0.504 | 0.307 | 0.246 | 0.197 | 0.175 | 0.171 | 0.159
11 | RERF-LC-KJ | 0.923 | 0.993 | 0.895 | 0.97 | 0.44 | 0.908 | 0.955 | 0.865 | 0.775 | 0.672 | 0.952 | 0.746 | 0.835 | 1.06 | 0.605 | 0.711 | 0.74 | 0.737 | 0.665 | 0.555
12 | SK-LU-1 | 0.404 | 0.454 | 0.481 | 0.513 | 0.483 | 0.475 | 0.439 | 0.551 | 0.663 | 0.456 | 0.954 | 0.571 | 0.794 | 0.953 | 0.789 | 0.605 | 0.562 | 0.658 | 0.612 | 0.654
13 | SK-MES-1 | 0.821 | 0.76 | 0.617 | 0.798 | 0.569 | 0.488 | 0.488 | 0.493 | 0.431 | 0.319 | 1.26 | 1.04 | 1.24 | 1.27 | 1.2 | 0.419 | 0.38 | 0.411 | 0.276 | 0.252
14 | SW 1573 | 0.337 | 0.491 | 0.496 | 0.508 | 0.484 | 0.638 | 0.5 | 0.599 | 0.592 | 0.392 | 1.03 | 0.895 | 1.25 | 0.862 | 0.993 | 0.467 | 0.481 | 0.594 | 0.508 | 0.393
